Measured values reported in US11299487B2, “Compounds and compositions as modulators of TLR signaling” (Neuropore Therapies, Inc., priority 2019, dated 2022).

Experiments:
Format in all cases: cell-based
human TLR2 [1] = molecular target: T1, human TLR2 (Homo sapiens, UniProt O60603); assay: HEK-Blue hTLR2 antagonism assay (SEAP reporter) with agonist Pam2CSK4 (TLR2/6 agonist); details: Table B; HEK-Blue hTLR2 cells, ~3×EC50 Pam2CSK4, 18 h, SEAP OD 655 nm, 8-point dilutions
T1 construct: host or cells: HEK-Blue hTLR2 (HEK-293)
T1 sequence (O60603 21-784): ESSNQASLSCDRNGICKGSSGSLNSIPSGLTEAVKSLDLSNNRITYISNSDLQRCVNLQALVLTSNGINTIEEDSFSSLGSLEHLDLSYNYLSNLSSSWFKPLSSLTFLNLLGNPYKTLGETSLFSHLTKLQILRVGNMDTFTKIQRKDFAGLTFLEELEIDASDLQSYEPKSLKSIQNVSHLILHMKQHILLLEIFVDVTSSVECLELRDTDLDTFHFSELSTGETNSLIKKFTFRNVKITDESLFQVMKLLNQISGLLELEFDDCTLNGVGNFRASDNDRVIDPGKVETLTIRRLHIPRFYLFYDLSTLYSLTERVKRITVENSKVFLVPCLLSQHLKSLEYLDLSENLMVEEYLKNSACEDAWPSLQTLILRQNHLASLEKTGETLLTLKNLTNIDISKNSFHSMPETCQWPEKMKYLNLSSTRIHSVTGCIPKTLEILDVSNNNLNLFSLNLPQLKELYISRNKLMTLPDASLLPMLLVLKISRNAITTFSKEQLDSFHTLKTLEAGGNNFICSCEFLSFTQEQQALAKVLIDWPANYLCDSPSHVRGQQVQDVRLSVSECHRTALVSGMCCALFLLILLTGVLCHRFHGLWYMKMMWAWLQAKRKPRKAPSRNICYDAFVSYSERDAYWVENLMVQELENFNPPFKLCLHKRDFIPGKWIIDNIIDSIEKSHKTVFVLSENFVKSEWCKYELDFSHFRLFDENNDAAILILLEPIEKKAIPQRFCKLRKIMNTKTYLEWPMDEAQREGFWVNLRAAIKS

human TLR2 [2] = molecular target: T1, human TLR2; assay: HEK-Blue hTLR2 antagonism assay (SEAP reporter) with agonist Pam3CSK4 (TLR1/2 agonist); details: Table B; HEK-Blue hTLR2 cells, ~3×EC50 Pam3CSK4, 18 h, SEAP OD 655 nm, 8-point dilutions
human TLR9 = molecular target: T2, human TLR9 (Homo sapiens, UniProt Q9NR96); assay: HEK-Blue hTLR9 assay (SEAP reporter) with agonist ODN 2006; details: Table B; HEK-Blue hTLR9 cells, ~3×EC50 ODN 2006, 18 h; exact values 8-point dilutions, approximate (~ or <) 4-point dilutions; read-out: ~IC50 (μM) with ODN2006
T2 construct: host or cells: HEK-Blue hTLR9 (HEK-293)
T2 sequence (Q9NR96 26-1032): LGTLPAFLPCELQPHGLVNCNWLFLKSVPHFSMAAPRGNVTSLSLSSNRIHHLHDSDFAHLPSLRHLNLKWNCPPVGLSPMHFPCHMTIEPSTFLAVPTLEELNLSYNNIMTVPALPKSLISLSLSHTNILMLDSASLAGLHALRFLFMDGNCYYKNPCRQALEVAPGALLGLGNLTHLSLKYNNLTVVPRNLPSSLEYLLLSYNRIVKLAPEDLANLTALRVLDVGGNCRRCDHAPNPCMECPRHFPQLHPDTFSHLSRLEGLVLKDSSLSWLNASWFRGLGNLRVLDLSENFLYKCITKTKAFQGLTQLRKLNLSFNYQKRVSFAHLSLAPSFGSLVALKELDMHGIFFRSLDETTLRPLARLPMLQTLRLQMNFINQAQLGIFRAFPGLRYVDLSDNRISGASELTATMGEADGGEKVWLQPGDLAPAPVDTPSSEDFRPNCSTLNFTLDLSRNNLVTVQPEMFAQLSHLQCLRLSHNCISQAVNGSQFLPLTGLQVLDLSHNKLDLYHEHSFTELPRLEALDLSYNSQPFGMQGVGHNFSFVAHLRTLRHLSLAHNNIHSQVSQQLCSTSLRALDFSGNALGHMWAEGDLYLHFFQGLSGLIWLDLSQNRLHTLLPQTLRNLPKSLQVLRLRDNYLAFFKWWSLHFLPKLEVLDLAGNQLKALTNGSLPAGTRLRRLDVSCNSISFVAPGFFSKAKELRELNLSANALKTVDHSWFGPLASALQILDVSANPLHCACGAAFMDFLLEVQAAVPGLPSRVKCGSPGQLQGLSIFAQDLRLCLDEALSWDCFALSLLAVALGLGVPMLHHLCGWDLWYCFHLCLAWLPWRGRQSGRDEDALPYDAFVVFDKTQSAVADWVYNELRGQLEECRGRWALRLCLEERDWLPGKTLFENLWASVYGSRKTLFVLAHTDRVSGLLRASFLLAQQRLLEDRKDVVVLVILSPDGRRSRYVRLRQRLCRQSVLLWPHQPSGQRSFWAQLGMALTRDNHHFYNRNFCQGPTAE
Experimental: Synthetic ODNs (ODN 2006 (ODN7909), class B CpG oligonucleotide, TLR9 agonist) was obtained from InvivoGen and was dissolved in endotoxin-free water to a concentration 500 μM, vortexed until complete solubilization, and stored in aliquots at −20° C. Prior to addition to cells, an aliquot of the dissolved ligand was vortexed shortly and then was diluted in medium to 50 μM. The EC50 of the agonist for each assay run was determined by using 3-fold dilutions from the starting concentration 10 μM.
Test compounds were solubilized fresh to 10-20 mM stocks in DMSO and sonicated for 5-10 minutes in a water bath sonicator. Serial dilutions were prepared in DMSO, and then diluted in medium. The final concentration of DMSO used in the assay was 1%.
HEK-Blue hTLR9 reporter cells (InvivoGen) are HEK-293 cells stably expressing both the human TLR9 gene and a secreted embryonic alkaline phosphatase (SEAP) reporter construct downstream of NFκB promotor sites. HEK-Blue hTLR9 cells were cultured according to manufacturer's protocol using Dulbecco's Modified Eagle Medium (DMEM; Gibco) containing 1× GlutaMax (Gibco), 10% heat-inactivated Fetal Bovine Serum (Gibco), Pen-Strep (50 U/mL penicillin, 50 μg/mL streptomycin, Gibco), 100 μg/mL Normocin (InvivoGen), and the selective antibiotics, 10 μg/mL Blasticidin (InvivoGen), and 100 μg/mL Zeocin (InvivoGen). Quanti-Blue reagent (InvivoGen) for detection and quantification of secreted alkaline phosphatase was dissolved in 100 mL of endotoxin-free water, warmed to 37° C. for 30 minutes and then filtered using a 0.2 μm membrane.
On day 1, 50 μL of each test compound dilution in duplicates or a vehicle control was added to each well of a 96-well plate followed by addition of 150 μL of HEK-Blue hTLR9 cell suspension (1×10^5 cells/well) and incubated at 37° C./5% CO2 for 2 h. Next, 50 μL of an approximate 3×EC50 concentration of TLR9 agonist, ODN 2006, was added to the wells containing test compounds or the vehicle control. The plates were then incubated at 37° C./5% CO2 for 18 h. For each assay run, vehicle-treated HEK-Blue hTLR9 cells were treated with serial dilutions of agonist to determine EC50 values for the respective run.
On day 2, secreted alkaline phosphatase (SEAP) activity was detected in cell culture supernatants. In brief, 30 μL was collected from each well and transferred to a 96-well plate. Next, 200 μL of Quanti-Blue detection reagent was added to each well. Plates were incubated at 37° C. for 60 min. and SEAP activity was assessed by spectrophotometer OD reading at 655 nm. Table A and Table B show the activities of the compounds tested in HEK-Blue hTLR9 cells against ODN 2006. The activities of the compounds against ODN 2006 are presented as IC50 values which were defined as concentrations of the compounds where percent inhibition of the signal induced by agonist is equal to 50. Exact IC50 values were calculated based on 8-point dilutions for each compound. Approximate IC50 values (˜ or <) were calculated based on 4-point dilutions for each compound.

Structure (SMILES)	IC50 (human TLR2 [1]) [µM]	IC50 (human TLR2 [2]) [µM]	IC50 (human TLR9) [µM]
O=Cc1cc(C(=O)Nc2cccc(N3CCCC3)c2)cc(F)c1O [Compound B71, 3-fluoro-5-formyl-4-hydroxy-N-(3-(pyrrolidin-1-yl)phenyl)benzamide]	2.6	1.7	~2.5
O=Cc1cc(C(=O)Nc2ccc(N3C[C@H]4COC[C@H]4C3)cc2)cc(F)c1O [Compound B75, 3-fluoro-5-formyl-4-hydroxy-N-(4-((3aR,6aS)-tetrahydro-1H-furo[3,4-c]pyrrol-5(3H)-yl)phenyl)benzamide]	13	6	~4.7
O=Cc1cc(C(=O)Nc2ccc(N3C[C@H]4CCC[C@H]4C3)cc2)cc(F)c1O [Compound B76, 3-fluoro-5-formyl-N-(4-((3aR,6aS)-hexahydrocyclopenta[c]pyrrol-2(1H)-yl)phenyl)-4-hydroxybenzamide]	1.2	0.6	< 1.2
CC1(C)CN(c2ccc(NC(=O)c3cc(F)c(O)c(C=O)c3)cn2)c2ccccc21 [Compound B87, N-(6-(3,3-dimethylindolin-1-yl)pyridin-3-yl)-3-fluoro-5-formyl-4-hydroxybenzamide]	0.5	0.4	0.1

Second part, the molecule after the results:

IC50 (human TLR2 [1]) [µM]	IC50 (human TLR2 [2]) [µM]	IC50 (human TLR9) [µM]	Structure (SMILES)
3.3	1.2	< 1.2	O=Cc1cc(C(=O)Nc2ccc(N3CCC(F)(F)C3)cc2)cc(F)c1O [Compound B67, N-(4-(3,3-difluoropyrrolidin-1-yl)phenyl)-3-fluoro-5-formyl-4-hydroxybenzamide]
3.5	1	< 1.2	O=Cc1cc(C(=O)Nc2ccc(N3CCC(F)(F)CC3)cc2)cc(F)c1O [Compound B68, N-(4-(4,4-difluoropiperidin-1-yl)phenyl)-3-fluoro-5-formyl-4-hydroxybenzamide]
0.6	0.3	0.3	CC1(C)CCN(c2ccc(NC(=O)c3cc(F)c(O)c(C=O)c3)cc2)C1 [Compound B73, N-(4-(3,3-dimethylpyrrolidin-1-yl)phenyl)-3-fluoro-5-formyl-4-hydroxybenzamide]
1.6	0.8	< 1.2	O=Cc1cc(C(=O)Nc2ccc(N3CC4CC4C3)cc2)cc(F)c1O (stereo not drawn) [Compound B74, N-(4-(3-azabicyclo[3.1.0]hexan-3-yl)phenyl)-3-fluoro-5-formyl-4-hydroxybenzamide]
0.6	0.3	< 1.2	O=Cc1cc(C(=O)Nc2ccc(N3CC4(CCC4)C3)cc2)cc(F)c1O [Compound B77, N-(4-(2-azaspiro[3.3]heptan-2-yl)phenyl)-3-fluoro-5-formyl-4-hydroxybenzamide]
